The test system of one assay is HCT-116 wild-type cells. In words: Inhibitory activity on proliferation of HCT-116 wild-type cells (Cell-Titer Glo). The class given is cell-based. The following applies: 8 d incubation.
Assay [1] concerns LU99 MTAP overexpressing cells. In words: Inhibitory activity on proliferation of LU99 MTAP overexpressing cells (Cell-Titer Glo). The class given is cell-based. Conditions: 6 d incubation.
Procedure: Materials and cells: LU99 MTAP overexpressing cell line was purchased from Kyinno Biotechnology (China); cell culture medium and fetal bovine serum were purchased from Thermo Fisher Scientific (USA); 384-well plates were purchased from PerkinElmer (USA); Cell-Titer Glo kits were purchased from Promega (USA).
Cell culture: LU99 MTAP overexpressing cells were cultured with medium containing 10% fetal bovine serum at 37°C in 5% carbon dioxide. Only cells in the logarithmic growth phase could be used for the test.
Test of inhibitory activity on cell proliferation: The Cell-Titer Glo kit was used to test the proliferation inhibitory activity of the compounds on LU99 MTAP overexpressing cells. The cell concentration was adjusted, rendering that cells were inoculated into a 384-well plate at 40 µL per well and incubated overnight at 37°C and 5% carbon dioxide. 40 nL of the compound was added to each well to reach a final concentration of 0-10,000 nM (starting concentration 10,000 nM, 2.5-fold dilution, 10 points), and the cell plate with 0.2% DMSO content was incubated at 37°C and 5% carbon dioxide for 6 d. 40 µL of Cell-Titer Glo reagent was added to test cell viability.
For assay [2], the system named is LU99 MTAP(-/-)deleted cells. In words: Inhibitory activity on proliferation of LU99 MTAP(-/-)deleted cells (Cell-Titer Glo).
Procedure: Materials and cells: LU99 MTAP deleted cell line was purchased from Kyinno Biotechnology (China); cell culture medium and fetal bovine serum were purchased from Thermo Fisher Scientific (USA); 384-well plates were purchased from PerkinElmer (USA); Cell-Titer Glo kits were purchased from Promega (USA). Cell culture: LU99 MTAP(-/-)deleted cells were cultured with medium containing 10% fetal bovine serum at 37°C in 5% carbon dioxide. Only cells in the logarithmic growth phase could be used for the test.
Test of inhibitory activity on cell proliferation: The Cell-Titer Glo kit was used to test the proliferation inhibitory activity of the compounds on LU99 MTAP(-/-)deleted cells. The cell concentration was adjusted, rendering that cells were inoculated into a 384-well plate at 40 µL per well and incubated overnight at 37°C and 5% carbon dioxide. […] 40 µL of Cell-Titer Glo reagent was added to test cell viability.
Assay [3] relates to HCT-116 MTAP(-/-)deleted cells. Description: Inhibitory activity on proliferation of HCT-116 MTAP(-/-)deleted cells (Cell-Titer Glo).
Procedure: Only cells in the logarithmic growth phase could be used for the test. […] The cell concentration was adjusted, rendering that cells were inoculated into a 384-well plate at 40 µL per well and incubated overnight at 37°C and 5% carbon dioxide. 40 nL of the compound was added to each well to reach a final concentration of 0-10,000 nM (starting concentration 10,000 nM, 3-fold dilution, 10 points), and the cell plate with 0.1% DMSO content was incubated at 37°C and 5% carbon dioxide for 8 d. 40 µL of Cell-Titer Glo reagent was added to test cell viability.
Setting [4] is: read-out: IC50 (nM) Lu99 MTAP(-/-)Deleted, LU99 MTAP(-/-)deleted cells, 6 d incubation, Cell-Titer Glo.
Where [5] appears, read: Homo sapiens, HCT-116, 192 h, read-out: IC50 (nM) HCT-116 MTAP(-/-)deleted.
Where [6] appears, read: Homo sapiens, Lu-99, 144 h, read-out: IC50 (nM) Lu99 MTAP(-/-)Deleted, LU99 MTAP(-/-)deleted cells, 6 d incubation, Cell-Titer Glo.
Where [7] appears, read: Homo sapiens, HCT-116, 192 h, read-out: IC50 (nM) HCT-116 MTAP(-/-)deleted, HCT-116 MTAP(-/-)deleted cells, 8 d incubation, Cell-Titer Glo.

Where two headings read alike, the source gives them in different places.

Procedure for HCT-116 wild-type cells: Cell culture: HCT-116 wild-type cells were cultured with a RPMI-1640 medium containing 10% fetal bovine serum+1% penicillin-streptomycin at 37°C in 5% carbon dioxide. Only cells in the logarithmic growth phase could be used for the test.
Test of cell proliferation activity: Cell-Titer Glo kit was used to test the proliferation inhibitory activity of the compound on HCT-116 wild-type cells. The cell concentration was adjusted, rendering that cells were inoculated into a 384-well plate at 40 µL per well and incubated overnight at 37°C and 5% carbon dioxide. 40 nL of the compound was added to each well to reach a final concentration of 0-10,000 nM (starting concentration 10,000 nM, 2-fold dilution, 10 points), and the cell plate with 0.1% DMSO content was incubated at 37°C and 5% carbon dioxide for 8 d. 40 µL of Cell-Titer Glo reagent was added to test cell viability.

On to “4-amino-N-methyl-N-(7'-(trifluoromethyl)spiro[cyclobutane-1,1'-isochroman]-4'-yl)imidazo[1,5-a]quinoxaline-8-carboxamide [Example 1]”, for which the IC50 was found to be 959 nM in the assay with HCT-116 wild-type cells; 652 nM in assay [1]; 13.2 nM in assay [2] (setting [4]); 10 nM in assay [3] (read-out: IC50 (nM) HCT-116 MTAP(-/-)deleted, HCT-116 MTAP(-/-)deleted cells, 8 d incubation, Cell-Titer Glo).
As to `CN(C(=O)c1ccc2nc(N)c3cncn3c2c1)[C@H]1COC2(CCC2)c2cc(C(F)(F)F)ccc21` (stereo in doubt) [Example 4, (R)-4-amino-N-methyl-N-(7'-(trifluoromethyl)spiro[cyclobutane-1,1'-isochroman]-4'-yl)imidazo[1,5-a]quinoxaline-8-carboxamide], the IC50 in assay [1] is 742 nM; in assay [2] (setting [4]) it was 1100 nM.
For `CN(C(=O)c1ccc2nc(N)c3cncn3c2c1)[C@H]1COC2(CCC2)c2cc(C(F)(F)F)ccc21` [Example 3, (R)-4-amino-N-methyl-N-(7'-(trifluoromethyl)spiro[cyclobutane-1,1'-isochroman]-4'-yl)imidazo[1,5-a]quinoxaline-8-carboxamide], the IC50 in the assay with HCT-116 wild-type cells (Homo sapiens, HCT-116, 192 h) came out at 636 nM; in assay [1] (Homo sapiens, Lu-99, 144 h), 624 nM; in assay [2] (setting [4]) it was 8.3 nM; in assay [3] (setting [5]), 5.1 nM.
For `CN(C(=O)c1ccc2nc(N)c3cncn3c2c1)[C@@H]1COC2(CCC2)c2nc(N3CCOCC3)ccc21` [Example 5, (S)-4-amino-N-methyl-N-(2'-morpholinyl-5',6'-dihydrospiro[cyclobutane-1,8'-pyrano[3,4-b]pyridine]-5'-yl)imidazo[1,5-a]quinoxaline-8-carboxamide], the IC50 stood at 2360 nM in assay [1] (Homo sapiens, Lu-99, 144 h) and 961 nM in assay [2] (setting [6]).
For the compound `CN(C(=O)c1ccc2nc(N)c3cncn3c2c1)C1COC2(CCC2)c2cc(C(F)(F)F)ccc21` (stereo not shown) [Example 7, 4-Amino-N-methyl-N-(7'-(trifluoromethyl)spiro[cyclobutane-1,1'-isochroman]-4'-yl)imidazo[1,5-a]quinoxaline-8-carboxamide], the IC50 in the assay with HCT-116 wild-type cells (Homo sapiens, HCT-116, 192 h) was 636 nM; in assay [1] (Homo sapiens, Lu-99, 144 h), 624 nM; in assay [2] (setting [6]), 8.3 nM; in assay [3] (setting [5]), 5.1 nM.
In the same order, the values of `CN(C(=O)c1ccc2nc(N)c3cncn3c2c1)C1COC2(CC2)c2cc(C(F)(F)F)ccc21` (stereo not shown) [Example 8, 4-Amino-N-methyl-N-(7'-(trifluoromethyl)spiro[cyclopropane-1,1'-isochroman]-4'-yl)imidazo[1,5-a]quinoxaline-8-carboxamide] are 3930 nM, 2310 nM, 13.4 nM and 9 nM.
In the same order, the values of `CN(C(=O)c1ccc2nc(N)c3cncn3c2c1)C1COC2(CCCC2)c2cc(C(F)(F)F)ccc21` (stereo not shown) [Example 9, 4-Amino-N-methyl-N-(7'-(trifluoromethyl)spiro[cyclopentane-1,1'-isochroman]-4'-yl)imidazo[1,5-a]quinoxaline-8-carboxamide] are 2220 nM, 1980 nM, 10.9 nM and 6.5 nM.
As to `CN(C(=O)c1ccc2nc(N)c3cncn3c2c1)C1COC2(CCOCC2)c2cc(C(F)(F)F)ccc21` (stereo not shown) [Example 12, 4-Amino-N-methyl-N-(7'-(trifluoromethyl)-2',3',5',6'-tetrahydrospiro[isochroman-1,4'-pyran]-4-yl)imidazo[1,5-a]quinoxaline-8-carboxamide], the IC50 with HCT-116 wild-type cells (Homo sapiens, HCT-116, 192 h) was 1730 nM; in assay [1] (Homo sapiens, Lu-99, 144 h), 1640 nM; in assay [2] (setting [6]), 8.8 nM; in assay [3] (setting [5]) it was 7.64 nM.
On to `CN(C(=O)c1cc2c(cc1F)nc(N)c1cncn12)C1COC2(CCC2)c2cc(C(F)(F)F)ccc21` (stereo not shown) [Example 13, 4-Amino-7-fluoro-N-methyl-N-(7'-(trifluoromethyl)spiro[cyclobutane-1,1'-isochroman]-4'-yl)imidazo[1,5-a]quinoxaline-8-carboxamide], for which the IC50 with HCT-116 wild-type cells (Homo sapiens, HCT-116, 192 h) worked out at 597 nM; in assay [1] (Homo sapiens, Lu-99, 144 h), 773 nM; in assay [2] (setting [6]) it was 7.8 nM; in assay [3] (setting [5]), 5.3 nM.
For the compound `CN(C(=O)c1cc2c(cc1F)nc(N)c1cncn12)[C@@H]1COC2(CCC2)c2cc(C(F)(F)F)ccc21` [Example 15, (S)-4-amino-7-fluoro-N-methyl-N-(7'-(trifluoromethyl)spiro[cyclobutane-1,1'-isochroman]-4'-yl)imidazo[1,5-a]quinoxaline-8-carboxamide], the IC50 in assay [1] (Homo sapiens, Lu-99, 144 h) came out at 425 nM; in assay [2] (setting [6]) it was 7.1 nM.
As to `CN(C(=O)c1cc2c(cc1F)nc(N)c1cncn12)C1COC2(CCOCC2)c2cc(C(F)(F)F)ccc21` (stereo not shown) [Example 16, 4-Amino-7-fluoro-N-methyl-N-(7-(trifluoromethyl)-2',3',5',6'-tetrahydrospiro[isochroman-1,4'-pyran]-4-yl)imidazo[1,5-a]quinoxaline-8-carboxamide], the IC50 came to 1610 nM in the assay on HCT-116 wild-type cells (Homo sapiens, HCT-116, 192 h); 1290 nM in assay [1] (Homo sapiens, Lu-99, 144 h); 10.8 nM in assay [2] (setting [6]); 5.9 nM in assay [3] (setting [5]).
`Cn1cc(N(C(=O)c2ccc3nc(N)c4cncn4c3c2)C2COC3(CCC3)c3cc(C(F)(F)F)ccc32)cn1` (stereo not shown) [Example 17, 4-Amino-N-(1-methyl-1H-pyrazol-4-yl)-N-(7'-(trifluoromethyl)spiro[cyclobutane-1,1'-isochroman]-4'-yl)imidazo[1,5-a]quinoxaline-8-carboxamide]: the IC50 with HCT-116 wild-type cells (Homo sapiens, HCT-116, 192 h) amounted to 324 nM; in assay [1] (Homo sapiens, Lu-99, 144 h), 104 nM; in assay [2] (setting [6]), 4.5 nM; in assay [3] (setting [5]), 5.17 nM.
Turning to `CN(C(=O)c1ccc2nc(N)c3cncn3c2c1)C1COC(C)(C)c2c1ccc1c2OCO1` (stereo not shown) [Example 18], the IC50 in assay [1] (Homo sapiens, Lu-99, 144 h) came to 756 nM; in assay [2] (setting [6]), 99.6 nM.
`Cc1ncc2c(N)nc3cc(F)c(C(=O)N(C)C4COC5(CCOCC5)c5cc(C(F)(F)F)ccc54)cc3n12` (stereo not shown) [Example 19, 4-Amino-7-fluoro-N,1-dimethyl-N-(7-(trifluoromethyl)-2',3',5',6'-tetrahydrospiro[isochroman-1,4'-pyran]-4-yl)imidazo[1,5-a]quinoxaline-8-carboxamide]: the IC50 was 2710 nM in the assay with HCT-116 wild-type cells (Homo sapiens, HCT-116, 192 h); 1390 nM in assay [1] (Homo sapiens, Lu-99, 144 h); 31.3 nM in assay [2] (setting [6]); 21.7 nM in assay [3] (setting [5]).
In the case of `Cc1ncn2c1c(N)nc1cc(F)c(C(=O)N(C)C3COC4(CCOCC4)c4cc(C(F)(F)F)ccc43)cc12` (stereo not shown) [Example 20, 4-Amino-7-fluoro-N,3-dimethyl-N-(7-(trifluoromethyl)-2',3',5',6'-tetrahydrospiro[isochroman-1,4'-pyran]-4-yl)imidazo[1,5-a]quinoxaline-8-carboxamide], the IC50 with HCT-116 wild-type cells (Homo sapiens, HCT-116, 192 h) is 920 nM; in assay [1] (Homo sapiens, Lu-99, 144 h), 1070 nM; in assay [2] (setting [6]), 20.5 nM; in assay [3] (setting [5]), 9.46 nM.
For the compound `CN(C(=O)c1ccc2nc(N)c3cncn3c2c1)[C@@H]1COC2(CCC2)c2cc(N3CCNCC3)ncc21` [Example 21, (S)-4-amino-N-methyl-N-(7'-(piperazin-1-yl)-3'-,4'-dihydrospiro[cyclobutane-1,1'-pyrano[4,3-c]pyridine]-4'-yl)imidazo[1,5-a]quinoxaline-8-carboxamide], the IC50 in the assay on HCT-116 wild-type cells (Homo sapiens, HCT-116, 192 h) is above 20000 nM; in assay [1] (Homo sapiens, Lu-99, 144 h), 12500 nM; in assay [2] (setting [6]), above 1000 nM; in assay [3] (setting [7]) it was above 1000 nM.
For the compound `CN(C(=O)c1ccc2nc(N)c3cncn3c2c1)C1COC2(CCC3(CC3)CC2)c2cc(C(F)(F)F)ccc21` (stereo not shown) [Example 23], the IC50 was 4520 nM in the assay on HCT-116 wild-type cells (Homo sapiens, HCT-116, 192 h); 3970 nM in assay [1] (Homo sapiens, Lu-99, 144 h); 66.1 nM in assay [2] (setting [6]); 51.5 nM in assay [3] (setting [5]).
With `CN(C(=O)c1ccc2nc(N)c3cncn3c2c1)C1COC2(CCCOC2)c2cc(C(F)(F)F)ccc21` (stereo not shown) [Example 24, 4-Amino-N-methyl-N-(7-(trifluoromethyl)-5',6'-dihydro-2'H,4'H-spiro[isochroman-1,3'-pyran]-4-yl)imidazo[1,5-a]quinoxaline-8-carboxamide], the IC50 in assay [1] (Homo sapiens, Lu-99, 144 h) is 1470 nM; in assay [2] (setting [6]) it was 9.54 nM.
Consider `CN(C(=O)c1ccc2nc(N)c3cncn3c2c1)C1COC2(CCC2)c2cc(N3CCOCC3)ncc21` (stereo not shown) [Example 28, 4-Amino-N-methyl-N-(7'-morpholinyl-3',4'-dihydrospiro[cyclobutane-1,1'-pyrano[4,3-c]pyridine]-4'-yl)imidazo[1,5-a]quinoxaline-8-carboxamide], for which the IC50 is above 10000 nM in the assay with HCT-116 wild-type cells (Homo sapiens, HCT-116, 192 h); 3880 nM in assay [1] (Homo sapiens, Lu-99, 144 h); 88.5 nM in assay [2] (setting [6]); 110 nM in assay [3] (setting [7]).
On to `CN(C(=O)c1cc2c(cc1F)nc(N)c1cncn12)C1COC2(CCCOC2)c2cc(C(F)(F)F)ccc21` (stereo not shown) [Example 50, 4-Amino-7-fluoro-N-methyl-N-(7-(trifluoromethyl)-5',6'-dihydro-2'H,4'H-spiro[isochroman-1,3'-pyran]-4-yl)imidazo[1,5-a]quinoxaline-8-carboxamide], for which the IC50 in assay [1] (Homo sapiens, Lu-99, 144 h) amounted to 591 nM; in assay [2] (setting [6]), 7.13 nM.
With `CN(C(=O)c1ccc2nc(N)c3cncn3c2c1)C1COC(C)(C)c2cc(C(F)(F)F)ncc21` (stereo not shown) [Example 99, 4-Amino-N-(1,1-dimethyl-7-(trifluoromethyl)-3,4-dihydro-1H-pyrano[4,3-c]pyridin-4-yl)-N-methylimidazo[1,5-a]quinoxaline-8-carboxamide], the IC50 amounted to 2970 nM in assay [1] (Homo sapiens, Lu-99, 144 h) and 152 nM in assay [2] (setting [6]).

These data come from patent EP4818171A1 (Apeiron Therapeutics (Hong Kong) Ltd., priority 2024, dated 2025).
